Our source for the IC50 values is US12378224B2 (Dong-A Socio Holdings Co., Ltd., priority 2016, dated 2025).

One assay deals with human MER (528-end) (Homo sapiens (Human), UniProt Q12866). The experiment in a line: HTRF Kinase Activity Biochemical Assay (KinEASE-TK). The conditions noted are these: 10 uM ATP. The gist of the method: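 Recombinant human MER (528-end) phosphorylated biotin-TK peptide substrate, 1 h at room temperature. Reaction stopped with detection buffer containing 0.375 nM Eu3+-cryptate anti-TK antibody and 0.062 uM streptavidin-XL665, 1 h further. Activity taken as HTRF ratio 665/620 nm ×10,000, 340 nm excitation.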

Assay [1] deals with BCR fusion to kinase domain of MerTK (Ba/F3-MerTK) (Homo sapiens, UniProt Q12866). The experiment in a line: In Cell TAM Kinase Assay Using BaF3 Cellular System. The assay is classed as cell-based, murine. The conditions noted are these: Ba/F3 BCR-kinase fusion proliferation, 72 hours, Cell Titer Glo; kinase not given; read-out: IC50. From the text:
Three Ba/F3 cell lines (a murine IL-3 dependent pro-B cell line) expressing BCR fusions to the kinase domains of either MerTK (Ba/F3-MerTK), Axl (Ba/F3-Axl), or Tyro3 (Ba/F3-Tyro3) were purchased from Advanced Cellular Dynamics. The IL-3 independence of all 3 cell lines was confirmed. After thawing, the 3 Ba/F3 cell lines were split and maintained in cell culture media, which consisted of RPMI-1640-HEPES (Thermo-Cat #22400-089) with 1× Glutamax (Thermo-Cat #35050-061) and 10% FBS (Sigma-Cat #F4135 (500 ml), at a cell density range of 0.05×10^6−1×10^6 cells/mL 4 days before used in the routine screen. Compound plates were prepared using Nunc™ white 384-well optical bottom plates (ThermoFisher, USA) with compound in 25 nL dimethyl sulfoxide in each well. For routine assays, each of the 3 Ba/F3 cell lines was seeded at 1,000 cells per well with 25 µL of cell culture media directly into 384-well compound plates and incubated for 72 hours. Cell proliferation was then measured by adding 25 μL of Cell Titer Glo 2.0 (Promega, USA). After incubating with Cell Titer Glo at room temperature for 30 mins, the luminescence intensity, which quantifies the cell viability, was measured using an Envision™ plate reader (PerkinElmer, USA). […] In the presence of IL-3, the proliferation of the Ba/F3-Tyro3 cells is no longer dependent on the Tyro3 kinase activity.
(In general: Cellular ATP, detected with luciferase, serves as a proxy for viable cell number.)

Sequence of BCR fusion to kinase domain of MerTK (Ba/F3-MerTK) (Q12866 21-999 limits assumed, stated change not applied): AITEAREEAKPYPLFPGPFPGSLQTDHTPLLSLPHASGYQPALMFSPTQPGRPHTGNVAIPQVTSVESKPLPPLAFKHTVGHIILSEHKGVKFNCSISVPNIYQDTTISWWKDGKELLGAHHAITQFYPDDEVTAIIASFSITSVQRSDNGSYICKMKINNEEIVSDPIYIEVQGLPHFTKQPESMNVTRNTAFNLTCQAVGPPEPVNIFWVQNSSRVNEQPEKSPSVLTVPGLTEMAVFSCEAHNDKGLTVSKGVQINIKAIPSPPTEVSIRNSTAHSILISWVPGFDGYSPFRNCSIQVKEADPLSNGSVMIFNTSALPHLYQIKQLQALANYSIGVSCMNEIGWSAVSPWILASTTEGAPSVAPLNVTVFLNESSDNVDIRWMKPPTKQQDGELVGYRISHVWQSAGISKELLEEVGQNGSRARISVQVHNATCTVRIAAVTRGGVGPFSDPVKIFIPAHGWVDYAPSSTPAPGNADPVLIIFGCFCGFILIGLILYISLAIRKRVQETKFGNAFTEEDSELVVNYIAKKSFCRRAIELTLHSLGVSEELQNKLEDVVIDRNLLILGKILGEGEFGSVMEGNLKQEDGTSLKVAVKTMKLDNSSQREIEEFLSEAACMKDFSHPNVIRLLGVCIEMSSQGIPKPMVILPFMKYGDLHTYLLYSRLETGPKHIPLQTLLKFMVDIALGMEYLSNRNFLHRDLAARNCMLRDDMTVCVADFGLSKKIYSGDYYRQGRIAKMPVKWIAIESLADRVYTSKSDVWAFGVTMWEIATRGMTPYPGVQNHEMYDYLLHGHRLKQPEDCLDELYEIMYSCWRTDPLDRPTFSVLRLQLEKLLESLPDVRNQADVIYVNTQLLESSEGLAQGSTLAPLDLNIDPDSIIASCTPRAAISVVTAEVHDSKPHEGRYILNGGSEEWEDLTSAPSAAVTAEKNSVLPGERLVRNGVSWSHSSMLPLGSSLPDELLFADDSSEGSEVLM
Sequence of human MER (528-end) (Q12866 528-999 limits assumed): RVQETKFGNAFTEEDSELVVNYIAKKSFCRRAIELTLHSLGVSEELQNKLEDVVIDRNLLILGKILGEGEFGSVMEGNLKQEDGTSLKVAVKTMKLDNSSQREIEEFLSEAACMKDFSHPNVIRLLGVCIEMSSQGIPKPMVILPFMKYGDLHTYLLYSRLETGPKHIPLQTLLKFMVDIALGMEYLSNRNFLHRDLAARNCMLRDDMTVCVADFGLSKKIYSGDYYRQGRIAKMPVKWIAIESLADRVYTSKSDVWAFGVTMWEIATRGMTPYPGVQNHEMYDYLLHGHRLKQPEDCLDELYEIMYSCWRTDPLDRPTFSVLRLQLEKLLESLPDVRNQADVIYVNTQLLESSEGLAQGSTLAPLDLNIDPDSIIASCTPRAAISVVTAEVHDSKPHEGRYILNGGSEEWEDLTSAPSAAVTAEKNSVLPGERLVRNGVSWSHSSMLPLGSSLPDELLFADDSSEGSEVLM

What is called IC50 is the concentration that inhibits the measured activity by half. As to `Cn1cc(-c2cnc(N)c(C(=O)N[C@@H]3CCN(C(=O)c4cc5c(C(F)(F)F)ccc(Cl)c5[nH]4)C3)c2)cn1` [Example 704, (R)-2-amino-N-(1-(7-chloro-4-(trifluoromethyl)-1H-indole-2-carbonyl)pyrrolidin-3-yl)-5-(1-methyl-1H-pyrazol-4-yl)nicotinamide], the IC50 (against human MER (528-end); in assay [1]) was > 1000 nM throughout.
On to `Cn1cc(-c2cnc(N)c(C(=O)N[C@@H]3CCN(C(=O)c4ccc5cc(O)ccc5c4)C3)c2)cn1` [Example 706, (R)-2-amino-N-(1-(6-hydroxy-2-naphthoyl)pyrrolidin-3-yl)-5-(1-methyl-1H-pyrazol-4-yl)nicotinamide], for which the IC50 at human MER (528-end) was 100 to 1000 nM; in assay [1], > 1000 nM.
As to `Cn1cc(-c2cnc(N)c(C(=O)N[C@@H]3CCN(C(=O)c4c[nH]c(=O)n(-c5ccc(F)cc5)c4=O)C3)c2)cn1` [Example 707, (R)-2-amino-N-(1-(3-(4-fluorophenyl)-2,4-dioxo-1,2,3,4-tetrahydropyrimidine-5-carbonyl)pyrrolidin-3-yl)-5-(1-methyl-1H-pyrazol-4-yl)nicotinamide], the IC50 (at human MER (528-end); in assay [1]) was > 1000 nM in each case.
`Cn1cc(-c2cnc(N)c(C(=O)N[C@@H]3CCN(C(=O)c4cc5cc(Br)ccc5s4)C3)c2)cn1` [Example 708, (R)-2-amino-N-(1-(5-bromobenzo[b]thiophene-2-carbonyl)pyrrolidin-3-yl)-5-(1-methyl-1H-pyrazol-4-yl)nicotinamide]: the values for the IC50 (against human MER (528-end); in assay [1]) were 100 to 1000 nM and 500 to 1000 nM, respectively.
Consider `Cn1cc(-c2cnc(N)c(C(=O)N[C@@H]3CCN(C(=O)c4ccc5c(ccn5CC5CCNCC5)c4)C3)c2)cn1` [Example 709, (R)-2-amino-5-(1-methyl-1H-pyrazol-4-yl)-N-(1-(1-(piperidin-4-ylmethyl)-1H-indole-5-carbonyl)pyrrolidin-3-yl)nicotinamide], for which the IC50 on human MER (528-end) was 100 to 1000 nM; in assay [1] it was > 1000 nM.
On the same counts, the results for `Cn1cc(-c2cnc(N)c(C(=O)N[C@@H]3CCN(C(=O)c4c[nH]c5ccccc45)C3)c2)cn1` [Example 710, (R)—N-(1-(1H-indole-3-carbonyl)pyrrolidin-3-yl)-2-amino-5-(1-methyl-1H-pyrazol-4-yl)nicotinamide] are > 1000 nM and > 1000 nM.
`Cn1cc(-c2cnc(N)c(C(=O)N[C@@H]3CCN(C(=O)c4ccc(-c5ccc(CN6CCOCC6)cc5)cc4)C3)c2)cn1` [Example 711, (R)-2-amino-5-(1-methyl-1H-pyrazol-4-yl)-N-(1-(4′-(morpholinomethyl)-[1,1′-biphenyl]-4-carbonyl)pyrrolidin-3-yl)nicotinamide]: the IC50 (on human MER (528-end); in assay [1]) was > 1000 nM in each case.
`Cn1cc(-c2cnc(N)c(C(=O)N[C@@H]3CCN(C(=O)c4ccc(-c5cccc(-c6nnnn6C)c5)cc4)C3)c2)cn1` [Example 712, (R)-2-amino-5-(1-methyl-1H-pyrazol-4-yl)-N-(1-(3′-(1-methyl-1H-tetrazol-5-yl)-[1,1′-biphenyl]-4-carbonyl)pyrrolidin-3-yl)nicotinamide]: the half-maximal inhibitory concentration (IC50) fell in the range of 10 to 100 nM against human MER (528-end) and 500 to 1000 nM in assay [1].
On the same counts, the results for `Cn1cc(-c2cnc(N)c(C(=O)N[C@@H]3CCN(C(=O)c4ccc(-c5cccc(-c6nnn[nH]6)c5)cc4)C3)c2)cn1` [Example 713, (R)—N-(1-(3′-(1H-tetrazol-5-yl)-[1,1′-biphenyl]-4-carbonyl)pyrrolidin-3-yl)-2-amino-5-(1-methyl-1H-pyrazol-4-yl)nicotinamide] are 100 to 1000 nM and > 1000 nM.
Regarding `Cc1nc(-c2cccc(-c3ccc(C(=O)N4CC[C@@H](NC(=O)c5cc(-c6cnn(C)c6)cnc5N)C4)cc3)c2)no1` [Example 714, (R)-2-amino-N-(1-(3′-(5-methyl-1,2,4-oxadiazol-3-yl)-[1,1′-biphenyl]-4-carbonyl)pyrrolidin-3-yl)-5-(1-methyl-1H-pyrazol-4-yl)nicotinamide], the IC50 at human MER (528-end) is 10 to 100 nM; in assay [1], > 1000 nM.
On the same counts, the results for `Cn1cc(-c2cnc(N)c(C(=O)N[C@@H]3CCN(C(=O)c4ccc(Oc5ccccc5Cl)cc4)C3)c2)cn1` [Example 718, (R)-2-amino-N-(1-(4-(2-chlorophenoxy)benzoyl)pyrrolidin-3-yl)-5-(1-methyl-1H-pyrazol-4-yl)nicotinamide] are 10 to 100 nM and 500 to 1000 nM.
On the same counts, the results for `CN1CCC(N(Cc2ccccc2)c2ccc3cc(C(=O)N4CC[C@@H](NC(=O)c5cc(-c6cnn(C)c6)cnc5N)C4)ccc3c2)CC1` [Example 720, (R)-2-amino-N-(1-(6-(benzyl(1-methylpiperidin-4-yl)amino)-2-naphthoyl)pyrrolidin-3-yl)-5-(1-methyl-1H-pyrazol-4-yl)nicotinamide] are 100 to 1000 nM and > 1000 nM.
`CCN(c1ccc2cc(C(=O)N3CC[C@@H](NC(=O)c4cc(-c5cnn(C)c5)cnc4N)C3)ccc2c1)C1CC(C)(C)N(C)C(C)(C)C1` [Example 721, (R)-2-amino-N-(1-(6-(ethyl(1,2,2,6,6-pentamethylpiperidin-4-yl)amino)-2-naphthoyl)pyrrolidin-3-yl)-5-(1-methyl-1H-pyrazol-4-yl)nicotinamide]: the IC50 at human MER (528-end) was in the range of 10 to 100 nM; in assay [1], 100 to 500 nM.
On the same counts, the results for `CN1C(C)(C)CC(Nc2ccc3cc(C(=O)N4CC[C@@H](NC(=O)c5cc(-c6cnn(C)c6)cnc5N)C4)ccc3c2)CC1(C)C` [Example 722, (R)-2-amino-5-(1-methyl-1H-pyrazol-4-yl)-N-(1-(6-((1,2,2,6,6-pentamethylpiperidin-4-yl)amino)-2-naphthoyl)pyrrolidin-3-yl)nicotinamide] are > 1000 nM and > 1000 nM.
On the same counts, the results for `Cn1cc(-c2cnc(N)c(C(=O)NC[C@@H]3CCCN3C(=O)c3ccc(-c4ccccc4)cc3)c2)cn1` [Example 734, (S)—N-((1-([1,1′-biphenyl]-4-carbonyl)pyrrolidin-2-yl)methyl)-2-amino-5-(1-methyl-1H-pyrazol-4-yl)nicotinamide] are > 1000 nM and > 1000 nM.
On the same counts, the results for `Cn1cc(-c2cnc(N)c(C(=O)NC[C@@H]3CCCN3C(=O)c3cccc(-c4ccccc4)c3)c2)cn1` [Example 735, (S)—N-((1-([1,1′-biphenyl]-3-carbonyl)pyrrolidin-2-yl)methyl)-2-amino-5-(1-methyl-1H-pyrazol-4-yl)nicotinamide] are > 1000 nM and > 1000 nM.
Regarding `Cn1cc(-c2cnc(N)c(C(=O)NC[C@H]3CCCN3C(=O)c3cccc(-c4ccccc4)c3)c2)cn1` [Example 737, (R)—N-((1-([1,1′-biphenyl]-3-carbonyl)pyrrolidin-2-yl)methyl)-2-amino-5-(1-methyl-1H-pyrazol-4-yl)nicotinamide], the IC50 (against human MER (528-end); in assay [1]) was > 1000 nM in each case.
With `Cn1cc(-c2cnc(N)c(C(=O)NC[C@H]3CCN(C(=O)c4ccc(-c5ccccc5)cc4)C3)c2)cn1` [Example 740, (R)—N-((1-([1,1′-biphenyl]-4-carbonyl)pyrrolidin-3-yl)methyl)-2-amino-5-(1-methyl-1H-pyrazol-4-yl)nicotinamide], the IC50 (against human MER (528-end); in assay [1]) was > 1000 nM throughout.
As to `Cn1cc(-c2cnc(N)c(C(=O)NC[C@H]3CCN(C(=O)c4cccc(-c5ccccc5)c4)C3)c2)cn1` [Example 741, (R)—N-((1-([1,1′-biphenyl]-3-carbonyl)pyrrolidin-3-yl)methyl)-2-amino-5-(1-methyl-1H-pyrazol-4-yl)nicotinamide], the IC50 (on human MER (528-end); in assay [1]) was > 1000 nM throughout.
For the compound `Cn1cc(-c2cnc(N)c(C(=O)N[C@@H]3CCN(C(=O)c4ccc(-c5ccc(CO)cc5)cc4)C3)c2)cn1` [Example 747, (R)-2-amino-N-(1-(4′-(hydroxymethyl)-[1,1′-biphenyl]-4-carbonyl)pyrrolidin-3-yl)-5-(1-methyl-1H-pyrazol-4-yl)nicotinamide], the IC50 is 100 to 1000 nM against human MER (528-end) and > 1000 nM in assay [1].
On the same counts, the results for `Cn1cc(-c2cnc(N)c(C(=O)N[C@@H]3CCN(C(=O)c4ccc(-c5cccc(CO)c5)cc4)C3)c2)cn1` [Example 748, (R)-2-amino-N-(1-(3′-(hydroxymethyl)-[1,1′-biphenyl]-4-carbonyl)pyrrolidin-3-yl)-5-(1-methyl-1H-pyrazol-4-yl)nicotinamide] are 10 to 100 nM and 100 to 500 nM.
On the same counts, the results for `Cn1cc(-c2cnc(N)c(C(=O)N[C@@H]3CCN(C(=O)c4ccc(-c5ccc(O)nc5)cc4)C3)c2)cn1` [Example 749, (R)-2-amino-N-(1-(4-(6-hydroxypyridin-3-yl)benzoyl)pyrrolidin-3-yl)-5-(1-methyl-1H-pyrazol-4-yl)nicotinamide] are > 1000 nM and > 1000 nM.
